Laboratory results: patent publication US10703764B2, “Benzopiperazine compositions as BET bromodomain inhibitors” (FORMA Therapeutics, Inc., priority 2013, dated 2020)

Key:
[1] = molecular target: T1, BRD4 BD1 (Homo sapiens, UniProt O60885); assay: AlphaScreen binding assay, BRD4 Bromodomain 1
T1 construct: made in house
How it was run: (§1)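 An AlphaScreen competition format was used with His-BRD4 BD1 or BD2 and biotin-H4 K5/8/12/16-acetyl peptide, each at matched final levels of 50 nM (BD1) or 100 nM (BD2). Incubation in HEPES/NaCl buffer with 0.1% BSA and 0.01% Triton X-100 ran ≥1 h before IC50 determination.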

[2] = molecular target: T2, BRD4 BD2 (Homo sapiens, UniProt O60885); assay: AlphaScreen binding assay, BRD4 Bromodomain 2
T2 construct: made in house
How it was run: as §1

[3] = tested on: MV4-11 cells; assay: Oncology cell growth assay (3-day proliferation, CellTiter-Glo); assay type: cell-based; settings: Homo sapiens, MV4-11, 72 h, AML cell line MV4-11, 72 hours, compounds grouped by IC50 range, read-out: MV4-11 IC50 (inhibition of proliferation, gIC50)
How it was run: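 Compounds were serially diluted 3-fold in DMSO, giving final well concentrations from 10 down to 0.0045 μM. MV4-11 cells were then seeded at 3000 cells/well in RPMI 1640 with 10% FBS and incubated 72 hours. CellTiter-Glo signal was measured and gIC50 obtained by four-parameter logistic regression.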

Structure (SMILES) | IC50 [1] [µM] | IC50 [2] [µM] | IC50 [3] [µM]
CC(=O)N1c2ccc(-c3cnn(Cc4ccccn4)c3)cc2N(C(=O)C2CC2)C[C@@H]1C [Example I-121, (S)-1-(4-(cyclopropanecarbonyl)-2-methyl-6-(1-(pyridin-2-ylmethyl)-1H-pyrazol-4-yl)-3,4-dihydroquinoxalin-1(2H)-yl)ethanone] | 0.1 to 1 | < 0.05 | 0.1 to 0.5
CC(=O)N1c2ccc(-c3cnn(Cc4ccnn4C)c3)cc2N(C(=O)OC(C)C)C[C@@H]1C [Example I-680] | 0.1 to 1 | 0.05 to 0.5 | 0.1 to 0.5
CC(=O)N1c2ccc(-c3cnn(C4CC4)c3)cc2N(c2nn(C)c3ccccc23)C[C@@H]1C [Example I-52, (S)-1-(6-(1-cyclopropyl-1H-pyrazol-4-yl)-2-methyl-4-(1-methyl-1H-indazol-3-yl)-3,4-dihydroquinoxalin-1(2H)-yl)ethanone] | 0.1 to 1 | < 0.05 | < 0.1
CCCS(=O)(=O)c1ccc(-c2ccc3c(c2)N(C(=O)OC2CCCCC2)C[C@H](C)N3C(C)=O)cc1 [Example I-1235] | 0.1 to 1 | 0.05 to 0.5 | 0.1 to 0.5
CC(=O)N1c2ccc(-c3ccc(C(N)=O)cc3)cc2N(C(=O)c2ccco2)C[C@@H]1C [Example I-810] | 0.1 to 1 | > 0.5 | 0.1 to 0.5
CC(=O)N1c2ccc(-c3cnn(CCC#N)c3)cc2N(C(=O)OC(C)C)C[C@@H]1C [Example I-679] | 0.1 to 1 | 0.05 to 0.5 | 0.1 to 0.5
CC(=O)N1c2ccc(-c3ccc(N4CCS(=O)(=O)CC4)cc3)cc2N(C(=O)C2CC2)C[C@@H]1C [Example I-435] | 0.1 to 1 | < 0.05 | 0.1 to 0.5
CC(=O)N1c2ccc(-c3ccc(NS(C)(=O)=O)cc3)cc2N(C(=O)Oc2ccc(F)cc2)C[C@@H]1C [Example I-1019] | 0.1 to 1 | < 0.05 | 0.1 to 0.5
CCOC(=O)N1C[C@H](C)N(C(C)=O)c2ccc(-c3ccc(S(C)(=O)=O)cc3)cc21 [Example I-224] | 0.1 to 1 | 0.05 to 0.5 | > 0.5
CC(=O)N1c2ccc(-c3ccc(C(=O)N(C)C)cc3)cc2N(C(=O)c2ccco2)C[C@@H]1C [Example I-809] | 0.1 to 1 | < 0.05 | 0.1 to 0.5
COc1ncccc1OC(=O)N1C[C@H](C)N(C(C)=O)c2ccc(-c3cnn(C4CC4)c3)cc21 [Example I-521] | < 0.1 | < 0.05 | < 0.1
CC(=O)N1c2ccc(-c3cccc(S(=O)(=O)NCCO)c3)cc2N(C(=O)C2CC2)C[C@@H]1C [Example I-1108] | 1 to 10 | 0.05 to 0.5 | 0.1 to 0.5
CC(=O)N1c2ccc(-c3cnn(C4CCNCC4)c3)cc2N(C(=O)C2CC2)C[C@@H]1C [Example I-359] | 1 to 10 | < 0.05 | 0.1 to 0.5
COC(=O)Nc1cc2c(cc1-c1ccc(S(C)(=O)=O)cc1)N(C(=O)OC(C)C)C[C@H](C)N2C(C)=O [Example I-198, Isopropyl (S)-4-acetyl-6-((methoxycarbonyl)amino)-3-methyl-7-(4-(methylsulfonyl)phenyl)-3,4-dihydroquinoxaline-1 (2H)-carboxylate] | 1 to 10 | > 0.5 | > 0.5
CC(C)OC(=O)N1C[C@H](C)N(C(=O)C2CC2)c2ccc(-c3ccc(S(=O)(=O)CCO)cc3)cc21 [Example I-479] | 0.1 to 1 | > 0.5 | > 0.5
CCOC(=O)N1C[C@H](C)N(C(C)=O)c2ccc(-c3ccc(S(=O)(=O)N(C)C)cc3)cc21 [Example I-1125] | 1 to 10 | 0.05 to 0.5 | 0.1 to 0.5
CC(=O)N1c2ccc(-c3cnn(C4CC4)c3)cc2N(C(=O)Oc2ccc3ncsc3c2)C[C@@H]1C [Example I-527] | 0.1 to 1 | 0.05 to 0.5 | < 0.1
CC(=O)N1c2ccc(-c3cnn(Cc4cnccn4)c3)cc2N(C(=O)C2CC2)C[C@@H]1C [Example I-123, (S)-1-(4-(cyclopropanecarbonyl)-2-methyl-6-(1-(pyrazin-2-ylmethyl)-1H-pyrazol-4-yl)-3,4-dihydroquinoxalin-1(2H)-yl)ethanone] | 1 to 10 | 0.05 to 0.5 | > 0.5
CC(=O)N1c2ccc(-c3cnn(C4CC4)c3)cc2N(C(=O)Oc2cccc3ncccc23)C[C@@H]1C [Example I-1191] | 0.1 to 1 | < 0.05 | 0.1 to 0.5
COC(=O)N1c2ccc(-c3ccc(C(=O)N4CCN(S(C)(=O)=O)CC4)cc3)cc2N(C(=O)OC(C)C)C[C@@H]1C [Example I-573] | 0.1 to 1 | 0.05 to 0.5 | 0.1 to 0.5
